Data as given in patent US8557565B2, “Degradation of polycyclic aromatic hydrocarbons to render them available for biodegradation” (priority 1999, dated 2013).

Legend:
[1] = Solubility and stability of O3 in aqueous and organic solvents; assay type: physicochemical; conditions: bipolar solvent versus water or heptane alone
Method: The amount of oil to be employed in the bipolar solution was determined by its solubility in n-heptane and bipolar solvent. With an addition of 2.5 ml of distilled deionized water (about 5%) to a homogenous solution 50 ml of n-heptane and 50 ml of acetic acid, the solution was separated into two distinct phases: the n-heptane containing PAHs and other hydrophobic intermediates, and acetic acid phase (95% of acetic acid/5% DD water) containing the hydrophilic byproducts. In this example, about 480 mg/L of oil in the bipolar solvent was ozonated for different durations and the solution contents were analyzed accordingly. Both byproducts in the n-heptane phase and in the 95% acetic acid phase were analyzed by GC/FID, GC/FPD, and GC/MS after the separation. Ozone stability in different solvents: bipolar solvent, n-heptane, 95% acetic acid/5% DD water, and pure acetic acid were also tested by stopping after 20 minutes of ozonation and monitoring the ozone concentration immediately after.
Ozone was generated by an ozone generator (Model T-816, Polymetrics Corp.) from dry and filtered air at an applied voltage of 65V an air flow rate of 2 L/min. The concentration of ozone in the bipolar solvent was determined by absorbance at 270 nm with a spectrophotometer (HP 8452 UV-Vis spectrophotometer, Hewlett Packard Co.) using a predetermined extinction coefficient of 1955 M^−1 cm^−1. […]

[2] = Ozonation reaction kinetics of spilt oil constituents in bipolar solvent; assay type: physicochemical; conditions: for tentative estimated pseudo-first-order rate constant k′: ozonation of spilt oil (480 mg/L) in n-heptane/acetic acid 1:1 bipolar solvent, about 20° C.; for behaviour under ozonation in the bipolar solvent: spilt oil constituents
Description: In this work example, an innovative treatment is developed for spilt oils from southern Kuwait desert that involves ozonation in a homogeneous solvent system. The solvent is constituted of miscible n-heptane and acetic acid (1:1 by volume), both of that are relatively inexpensive, environmentally benign, and biodegradable. The solvent system allows dissolution of oil in its non-polar heptane constituent, while the hydrophilic acetic acid keeps the progressively more polar intermediates and byproducts being formed from ozonation of oil in solution as the reaction continues. The n-heptane and acetic acid were chosen because of their relatively slow reaction rate with ozone (kO3[M^−1 s^−1] about 10^−3˜1 for alkanes and 3×10^−5 for acetic acid.
The amount of oil to be employed in the bipolar solution was determined by its solubility in n-heptane and bipolar solvent.
The pseudo-first order rate constants were evaluated by linear regression of all data according to the equations given below. The reaction of ozone with contaminants can be expressed as a second order reaction: −dCA/dt=kCA[O3] (1) where: dCA/dt=rate of reaction of contaminant k=reaction rate constant CA=concentration of contaminant [O3]=concentration of ozone
In the present of excess and constant ozone concentration, the rate law for the reaction can be considered as pseudo-first order: −dCA/dt=k′CA (2)
A glass batch reactor with a working volume of 300 mL was used. Mixing in the reactor was provided by a magnetic mixer operating at 250 rpm. […] Ozone was sparged into the reactor near the bottom through a glass dispersion tube (ACE glass Inc.) Reaction batches were stopped after 0.25, 0.5, 1, 2, 3, 4, 5, 10, 20, 40, 60, 120, and 180 minutes of ozonation. Residual ozone was removed from solution by purging with a gentle N2 stream for 1 min. Samples were kept in 2-mL vials and preserved at 5° C. if necessary prior to GC analysis. Qualitative and quantitative analyses of oil and oxidized oil were performed simultaneously. All samples were concentrated by a gentle stream of N2 gas to best retain the intermediates with lower molecular weights.

[3] = Saturated aqueous solution (dissolution equilibrium in water); conditions: equilibrium overnight, 0.45-μm filtered
[4] = Mass and COD balance of PAH-packed column fed with ozonated water; conditions: pyrene-loaded column, 4 h ozonation

O=[O+][O-] [Ozone]
solubility and stability of O3 [1]: higher solubility and stability

CCC(C)CCCC(C)CCCC(C)CCCC(C)C (stereo not drawn) [Phytane]
tentative estimated pseudo-first-order rate constant k′ [2]: 0.0178 s⁻¹ | tentative estimated pseudo-first-order rate constant k′ ([2]; listed as phytane): 0.0178 s⁻¹ | behaviour under ozonation in the bipolar solvent [2]: relatively resistant to ozonation

c1cc2ccc3cccc4ccc(c1)c2c34 [Pyrene]
saturated aqueous solution concentration [3]: 0.13 ppm | total amount degraded [4]: 0.365 mmol

CCCCCCCCCCCCCCCCCCCC [nC20, Icosane]
tentative estimated pseudo-first-order rate constant k′ [2]: 0.00198 s⁻¹ | tentative estimated pseudo-first-order rate constant k′ ([2]; listed as n-icosane): 0.00198 s⁻¹ | behaviour under ozonation in the bipolar solvent [2]: relatively resistant to ozonation
